{"source": "ChEMBL document CHEMBL1201862", "about": "“PubChem BioAssay data set” (2004)", "test_in_all_cases": "growth of human tumour cells (NCI), 48 h", "key": {"DLD-1": {"test_system": "DLD-1"}, "DMS-114": {"test_system": "DMS-114"}, "DMS-273": {"test_system": "DMS-273"}, "HOP-18": {"test_system": "HOP-18"}, "KM-20L2": {"test_system": "KM-20L2"}, "M19-MEL": {"test_system": "M19-MEL"}, "XF498": {"test_system": "XF498"}, "LXFL 529": {"test_system": "LXFL 529"}, "RXF 631": {"test_system": "RXF 631"}}, "note": "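Step 1: Grow cells in 96-well plates. Step 2: Expose to compound for 48 hours at 5 concentrations. Step 3: Interpolate endpoints linearly; if unreached, use highest concentration. GI50: concentration for 50% inhibition of growth.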 Activity calls are given as the source filed them. No stated cut-off is given here; in the data, active = GI50 up to about 1.1 µM and inactive = higher.", "data": [{"smiles": "CCCC(O)C(NC(=O)CCl)C(=O)O", "note": "(stereo unspecified)", "values": [{"measurement": "GI50", "setting": "DLD-1", "result": "> 100 µM (inactive)"}, {"measurement": "GI50", "setting": "DMS-114", "result": "> 100 µM (inactive)"}, {"measurement": "GI50", "setting": "DMS-273", "result": "> 100 µM (inactive)"}, {"measurement": "GI50", "setting": "HOP-18", "result": "> 100 µM (inactive)"}, {"measurement": "GI50", "setting": "KM-20L2", "result": "> 100 µM (inactive)"}, {"measurement": "GI50", "setting": "M19-MEL", "result": "> 100 µM (inactive)"}, {"measurement": "GI50", "setting": "XF498", "result": "> 100 µM (inactive)"}]}, {"smiles": "CSCCC(NC(=O)C(Cc1ccccc1)NC(=O)CNC(=O)CNC(=O)C(N)Cc1ccc(O)cc1)C(=O)O", "note": "(stereo unspecified)", "values": [{"measurement": "GI50", "setting": "DMS-114", "result": "> 100 µM (inactive)"}, {"measurement": "GI50", "setting": "DMS-273", "result": "> 100 µM (inactive)"}, {"measurement": "GI50", "setting": "HOP-18", "result": "> 100 µM (inactive)"}, {"measurement": "GI50", "setting": "KM-20L2", "result": "> 20.3 µM (inactive)"}, {"measurement": "GI50", "setting": "M19-MEL", "result": "> 100 µM (inactive)"}]}, {"smiles": "COc1ccc2c(c1O)C(=O)C(CCC(=O)O)CC2", "note": "(stereo unspecified)", "values": [{"measurement": "GI50", "setting": "DLD-1", "result": "> 100 µM (inactive)"}, {"measurement": "GI50", "setting": "DMS-114", "result": "> 100 µM (inactive)"}, {"measurement": "GI50", "setting": "DMS-273", "result": "> 100 µM (inactive)"}, {"measurement": "GI50", "setting": "HOP-18", "result": "> 100 µM (inactive)"}, {"measurement": "GI50", "setting": "KM-20L2", "result": "> 100 µM (inactive)"}, {"measurement": "GI50", "setting": "LXFL 529", "result": "> 100 µM (inactive)"}, {"measurement": "GI50", "setting": "M19-MEL", "result": "> 100 µM (inactive)"}, {"measurement": "GI50", "setting": "RXF 631", "result": "> 100 µM (inactive)"}, {"measurement": "GI50", "setting": "XF498", "result": "> 100 µM (inactive)"}]}, {"smiles": "O=P(Nc1ccccc1)(Oc1ccccc1)N(CCCl)CCCl", "note": "(stereo unspecified)", "values": [{"measurement": "GI50", "setting": "DLD-1", "result": "> 100 µM (inactive)"}, {"measurement": "GI50", "setting": "DMS-114", "result": "60.1 µM (inactive)"}, {"measurement": "GI50", "setting": "DMS-273", "result": "> 100 µM (inactive)"}, {"measurement": "GI50", "setting": "HOP-18", "result": "> 100 µM (inactive)"}, {"measurement": "GI50", "setting": "KM-20L2", "result": "> 100 µM (inactive)"}, {"measurement": "GI50", "setting": "M19-MEL", "result": "> 100 µM (inactive)"}, {"measurement": "GI50", "setting": "RXF 631", "result": "> 100 µM (inactive)"}]}, {"smiles": "C[C@]12C/C(=C/O)C(=O)C(O)=C1CC[C@@H]1C2CC[C@@]2(C)C1CC[C@@H]2O", "note": "(stereo partly specified)", "values": [{"measurement": "GI50", "setting": "DMS-114", "result": "18.2 µM (inactive)"}, {"measurement": "GI50", "setting": "DMS-273", "result": "23.5 µM (inactive)"}, {"measurement": "GI50", "setting": "HOP-18", "result": "33.7 µM (inactive)"}, {"measurement": "GI50", "setting": "KM-20L2", "result": "22.6 µM (inactive)"}, {"measurement": "GI50", "setting": "LXFL 529", "result": "16.2 µM (inactive)"}, {"measurement": "GI50", "setting": "M19-MEL", "result": "21.2 µM (inactive)"}, {"measurement": "GI50", "setting": "RXF 631", "result": "20.6 µM (inactive)"}, {"measurement": "GI50", "setting": "XF498", "result": "17.6 µM (inactive)"}]}, {"smiles": "O=C1CC2(CCC3=C(O2)c2ccccc2NC(=O)C3)C(=O)c2ccccc2N1", "note": "(stereo unspecified)", "values": [{"measurement": "GI50", "setting": "DMS-114", "result": "> 100 µM (inactive)"}, {"measurement": "GI50", "setting": "DMS-273", "result": "> 100 µM (inactive)"}, {"measurement": "GI50", "setting": "KM-20L2", "result": "> 100 µM (inactive)"}, {"measurement": "GI50", "setting": "LXFL 529", "result": "> 100 µM (inactive)"}, {"measurement": "GI50", "setting": "M19-MEL", "result": "> 100 µM (inactive)"}, {"measurement": "GI50", "setting": "XF498", "result": "> 100 µM (inactive)"}]}, {"smiles": "O=C1c2ccccc2C(=O)c2c1ccc1c2N=C(c2ccc(Br)cc2)CC(c2cccc3ccccc23)N1", "note": "(stereo unspecified)", "values": [{"measurement": "GI50", "setting": "DLD-1", "result": "> 100 µM (inactive)"}, {"measurement": "GI50", "setting": "DMS-114", "result": "> 100 µM (inactive)"}, {"measurement": "GI50", "setting": "DMS-273", "result": "> 100 µM (inactive)"}, {"measurement": "GI50", "setting": "HOP-18", "result": "> 100 µM (inactive)"}, {"measurement": "GI50", "setting": "KM-20L2", "result": "> 100 µM (inactive)"}, {"measurement": "GI50", "setting": "LXFL 529", "result": "> 100 µM (inactive)"}, {"measurement": "GI50", "setting": "RXF 631", "result": "> 100 µM (inactive)"}, {"measurement": "GI50", "setting": "XF498", "result": "> 100 µM (inactive)"}]}, {"smiles": "COc1cc(CC2c3cc(OC)c(OC)cc3CCN2C)c(Oc2cc3c(cc2OC)-c2c(OC)c(OC)c(OC)c4c2C(C3)N(C)CC4)cc1OC", "note": "(stereo unspecified)", "values": [{"measurement": "GI50", "setting": "DLD-1", "result": "15.5 µM (inactive)"}, {"measurement": "GI50", "setting": "DMS-114", "result": "12.1 µM (inactive)"}, {"measurement": "GI50", "setting": "DMS-273", "result": "12.5 µM (inactive)"}, {"measurement": "GI50", "setting": "HOP-18", "result": "16.4 µM (inactive)"}, {"measurement": "GI50", "setting": "KM-20L2", "result": "5.93 µM (inactive)"}, {"measurement": "GI50", "setting": "LXFL 529", "result": "13.7 µM (inactive)"}, {"measurement": "GI50", "setting": "M19-MEL", "result": "15 µM (inactive)"}, {"measurement": "GI50", "setting": "XF498", "result": "13 µM (inactive)"}]}, {"smiles": "Cc1cccc(=O)c([O-])c1.Cc1cccc(=O)c([O-])c1.[Bi+3].[Cl-]", "values": [{"measurement": "GI50", "setting": "DLD-1", "result": "9.95 µM (inactive)"}, {"measurement": "GI50", "setting": "DMS-114", "result": "3.3 µM (inactive)"}, {"measurement": "GI50", "setting": "DMS-273", "result": "7.29 µM (inactive)"}, {"measurement": "GI50", "setting": "KM-20L2", "result": "2.99 µM (inactive)"}, {"measurement": "GI50", "setting": "M19-MEL", "result": "11 µM (inactive)"}]}, {"smiles": "NC(=O)CCCC(NCc1c2ccccc2nc2ccccc12)C(=O)O", "note": "(stereo unspecified)", "values": [{"measurement": "GI50", "setting": "DLD-1", "result": "35.4 µM (inactive)"}, {"measurement": "GI50", "setting": "DMS-114", "result": "37.2 µM (inactive)"}, {"measurement": "GI50", "setting": "DMS-273", "result": "28.2 µM (inactive)"}, {"measurement": "GI50", "setting": "KM-20L2", "result": "43.5 µM (inactive)"}, {"measurement": "GI50", "setting": "LXFL 529", "result": "39.9 µM (inactive)"}, {"measurement": "GI50", "setting": "M19-MEL", "result": "45.2 µM (inactive)"}, {"measurement": "GI50", "setting": "XF498", "result": "21 µM (inactive)"}]}, {"smiles": "CN(C)CCCNc1ccc2ncn3c4ccc(O)cc4c(=O)c1c23", "values": [{"measurement": "GI50", "setting": "DLD-1", "result": "1.4 µM (inactive)"}, {"measurement": "GI50", "setting": "DMS-114", "result": "0.334 µM (active)"}, {"measurement": "GI50", "setting": "DMS-273", "result": "0.246 µM (active)"}, {"measurement": "GI50", "setting": "HOP-18", "result": "3.86 µM (inactive)"}, {"measurement": "GI50", "setting": "KM-20L2", "result": "1.59 µM (inactive)"}, {"measurement": "GI50", "setting": "LXFL 529", "result": "1.87 µM (inactive)"}, {"measurement": "GI50", "setting": "M19-MEL", "result": "1.53 µM (inactive)"}, {"measurement": "GI50", "setting": "RXF 631", "result": "0.318 µM (active)"}, {"measurement": "GI50", "setting": "XF498", "result": "3.83 µM (inactive)"}]}, {"smiles": "NC(=O)c1ncn2c1NCC1OC2C(O)C1O", "note": "(stereo unspecified)", "values": [{"measurement": "GI50", "setting": "DLD-1", "result": "> 100 µM (inactive)"}, {"measurement": "GI50", "setting": "DMS-114", "result": "> 100 µM (inactive)"}, {"measurement": "GI50", "setting": "DMS-273", "result": "> 100 µM (inactive)"}, {"measurement": "GI50", "setting": "HOP-18", "result": "> 100 µM (inactive)"}, {"measurement": "GI50", "setting": "KM-20L2", "result": "> 100 µM (inactive)"}, {"measurement": "GI50", "setting": "LXFL 529", "result": "> 100 µM (inactive)"}, {"measurement": "GI50", "setting": "M19-MEL", "result": "> 100 µM (inactive)"}, {"measurement": "GI50", "setting": "RXF 631", "result": "> 100 µM (inactive)"}, {"measurement": "GI50", "setting": "XF498", "result": "> 100 µM (inactive)"}]}, {"smiles": "CC(C)CCCC(C)[C@H]1CCC2[C@@H]3CCC4Nc5nocc5C[C@]4(C)C3CC[C@@]21C", "note": "(stereo partly specified)", "values": [{"measurement": "GI50", "setting": "DLD-1", "result": "19.7 µM (inactive)"}, {"measurement": "GI50", "setting": "DMS-273", "result": "19.2 µM (inactive)"}, {"measurement": "GI50", "setting": "HOP-18", "result": "13.6 µM (inactive)"}, {"measurement": "GI50", "setting": "KM-20L2", "result": "21.2 µM (inactive)"}, {"measurement": "GI50", "setting": "LXFL 529", "result": "11.8 µM (inactive)"}, {"measurement": "GI50", "setting": "M19-MEL", "result": "16.9 µM (inactive)"}]}, {"smiles": "COc1ccc(OC)c(CC(C)N)c1", "note": "(stereo unspecified)", "values": [{"measurement": "GI50", "setting": "DLD-1", "result": "> 100 µM (inactive)"}, {"measurement": "GI50", "setting": "DMS-114", "result": "> 100 µM (inactive)"}, {"measurement": "GI50", "setting": "HOP-18", "result": "> 100 µM (inactive)"}, {"measurement": "GI50", "setting": "KM-20L2", "result": "> 100 µM (inactive)"}, {"measurement": "GI50", "setting": "LXFL 529", "result": "> 100 µM (inactive)"}, {"measurement": "GI50", "setting": "M19-MEL", "result": "> 100 µM (inactive)"}, {"measurement": "GI50", "setting": "XF498", "result": "> 100 µM (inactive)"}]}]}
